Where no end group is shown, it is not given here.

One series addresses PSMα3 fibrils (Staphylococcus aureus, UniProt A9JX07). The series can be described thus: LC-MS degradation of amoxicillin and penicillin G with PSMα3 fibrils or buffer. In kind it is biochemical. The settings on record: for Degraded Penicillin G (PSMa3) (percentage of LC peaks, hydrolyzed product) / Penicillin G (PSMa3) (percentage of LC peaks, parent compound) / Degraded Penicillin G (percentage of LC peaks, hydrolyzed product) / Penicillin G (percentage of LC peaks, parent compound): Hepes 50 mM pH 7.4, penicillin G 40 µM, LC-MS; for Degraded Penicillin G (percentage of LC peaks, hydrolyzed product) / Penicillin G (percentage of LC peaks, parent compound): buffer control. The protocol:
Amoxicillin or Penicillin solutions were dissolved in Hepes buffer (50 mM, pH 7.4) in concentration of 50 µM. PSMα3 solution in concentration of 1.54 mM was dissolved in DIW and Hepes buffer was added to the final concentration of 50 mM. The antibiotics’ solutions and preincubated PSMα3 solutions were mixed to final PSMα3 […] 180 µL organic solvent to stop the reaction (acetonitrile for Amoxicillin, methanol in the case of Penicillin). The samples were collected and injected sequentially into the LC-MS analysis.
Waters ACQUITY UPLC I-Class PLUS System coupled with high-resolution Thermo Orbitrap Exploris 240 mass-spectrometer were used for analysis of Amoxicillin and Penicillin-G over time. 1 µL of each sample was injected into the reverse-phase Acquity UPLC BEH C18 1.7 µm, 2.1 × 50 mm column (Waters) and run under a gradient program (Table S2 for Amoxicillin, Table S3 for Penicillin-G). The samples were ionized using soft electrospray ionization in positive mode and detected in a full scan mode in range from 60 to 900 m/z with a resolution of 240,000 Full Width at Half Maximum. MS was tuned according to the manufacture recommendations. Relative abundance of the intact/degraded compounds was calculated by peak area of the extracted ion chromatogram: for Amoxicillin 366.1–366.12, and degraded-Amoxicillin 384.1–384.13 m/z, Penicillin-G 335.1–335.12, for degraded-Penicillin-G 353.1–353.12, for (Figs. S13 and S14, respectively).

The nature of series [1]: Nitrocefin hydrolysis kinetics (absorbance of degraded nitrocefin at 480 nm; initial rates V0, Michaelis-Menten fit). The settings on record: peptide 170 µM; for nitrocefin substrate degradation after two hours: initial nitrocefin 107 µM (Fig. 4b). In kind it is biochemical. The protocol:
Nitrocefin, a β-lactam widely used as a surrogate substrate of Penicillin in β-lactamase activity assay, was used as a substrate. NC degradation was monitored for 2 h. Nitrocefin stock solution was dissolved in acetonitrile (20 mM) and then diluted with Hepes buffer (50 mM, pH 7.4) to nitrocefin concentration of 360 µM (further dilutions to lower concentrations were made with the 360 µM NC stock). All nitrocefin samples were kept on ice in cold conditions and any further dilution or mixing was performed in ice-cold conditions to avoid self-hydrolysis background reaction. […] Immediately after mixing the samples, the plate was transferred to 20̊ °C pre-cooled plate reader (Multiskan GO, Thermo Scientific, Waltham, MA) and shaken slowly for 10 s. Then, the absorbance of degraded nitrocefin was measured for 2 h at interval of 20 s at λ = 480 nm. Initial production rates (V0) were calculated by slope of the initial linear range of degraded-nitrocefin production at the first 15 min. The reported results are and average of at least five separate measurements (the exact number of repeats, N, is reported next to the values). Each experiment also included blank samples of nitrocefin substrate diluted with buffer instead of PSMα. […] The initial rate calculations were performed while also subtracting the self-degradation of the substrate, to ensure that this product absorbance is a result of PSMα presence.
The initial rates of degraded-nitrocefin production were calculated from the slopes of the first 15 min of measurement as reported above. The initial rates (V0) were fitted using non-linear regression applied with the solver function in excel, either to Michalis–Menten equation V=Vmax.[S]/(KM+S) Where Vmax. Stands for maximal reaction rate, KM stands for Michalis–Menten constant, [S] stands for the substrate molar concentration. Each initial rate value was presented as average ± SEM. The kinetic parameters were calculated by fitting the data to MM model using non-linear regression, and the confidence intervals for each parameter were calculated accordingly.

PSMα3 fibrils, sequence (A9JX07 whole entry, looked up): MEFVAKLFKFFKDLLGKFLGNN

For the compound `CC1(C)S[C@@H]2[C@H](NC(=O)Cc3ccccc3)C(=O)N2[C@H]1C(=O)O` [Penicillin G], the “Degraded Penicillin G (PSMa3) (percentage of LC peaks, hydrolyzed product)” value on PSMα3 fibrils (PSMα3 fibrils 308 µM, 0h) is given as 14.1576%; at PSMα3 fibrils (PSMα3 fibrils 308 µM, 2h) it was 11.4487%; at PSMα3 fibrils (PSMα3 fibrils 308 µM, 4h) it was 13.5281%; on PSMα3 fibrils (PSMα3 fibrils 308 µM, 8h), 13.7177%; at PSMα3 fibrils (PSMα3 fibrils 308 µM, 12h), 18.21%; on PSMα3 fibrils (PSMα3 fibrils 308 µM, 24h) it was 37.9475%. Also, the “Degraded Penicillin G (PSMa3) (percentage of LC peaks, hydrolyzed product)” value is 86.3947% on PSMα3 fibrils (PSMα3 fibrils 308 µM, 48h); 96.085% on PSMα3 fibrils (PSMα3 fibrils 308 µM, 60h); 99.5055% at PSMα3 fibrils (PSMα3 fibrils 308 µM, 72h). The “Penicillin G (PSMa3) (percentage of LC peaks, parent compound)” value at PSMα3 fibrils (PSMα3 fibrils 308 µM, 0h) worked out at 85.8424%; at PSMα3 fibrils (PSMα3 fibrils 308 µM, 2h) it was 88.5513%; on PSMα3 fibrils (PSMα3 fibrils 308 µM, 4h), 86.4719%; at PSMα3 fibrils (PSMα3 fibrils 308 µM, 8h), 86.2823%; at PSMα3 fibrils (PSMα3 fibrils 308 µM, 12h), 81.79%; on PSMα3 fibrils (PSMα3 fibrils 308 µM, 24h), 62.0525%. In addition, the “Penicillin G (PSMa3) (percentage of LC peaks, parent compound)” value on PSMα3 fibrils (PSMα3 fibrils 308 µM, 48h) was 13.6053%; on PSMα3 fibrils (PSMα3 fibrils 308 µM, 60h) it was 3.915%; on PSMα3 fibrils (PSMα3 fibrils 308 µM, 72h), 0.4945%. At PSMα3 fibrils (antibiotic 40 µM, PSMα3 fibrils 308 µM, Hepes 50 mM pH 7.4, LC-MS (Fig. 6)), the “hydrolysis by PSMα3 fibrils versus spontaneous degradation” value is “significantly higher extent compared to the spontaneous degradation”. For the same compound, the “Degraded Penicillin G (percentage of LC peaks, hydrolyzed product)” value was 11.7847% at PSMα3 fibrils (0h); 11.7612% at PSMα3 fibrils (2h); 11.6984% on PSMα3 fibrils (4h); 11.6907% on PSMα3 fibrils (8h); 15.4738% at PSMα3 fibrils (12h); 23.4015% on PSMα3 fibrils (24h). For the same compound, the figures for the “Degraded Penicillin G (percentage of LC peaks, hydrolyzed product)” value at PSMα3 fibrils (48h), on PSMα3 fibrils (60h) and at PSMα3 fibrils (72h) were 37.4339%, 42.5642% and 42.8604%, respectively. For the same compound, the “Penicillin G (percentage of LC peaks, parent compound)” value is 88.2153% at PSMα3 fibrils (0h); 88.2388% at PSMα3 fibrils (2h); 88.3016% on PSMα3 fibrils (4h); 88.3093% on PSMα3 fibrils (8h); 84.5262% on PSMα3 fibrils (12h); 76.5985% at PSMα3 fibrils (24h). For the same compound, the “Penicillin G (percentage of LC peaks, parent compound)” value at PSMα3 fibrils (48h) was 62.5661%; on PSMα3 fibrils (60h), 57.4358%; at PSMα3 fibrils (72h), 57.1396%.
Turning to `CSCC[C@H](N)C(=O)N[C@@H](CCC(=O)O)C(=O)N[C@@H](Cc1ccccc1)C(=O)N[C@H](C(=O)N[C@@H](C)C(=O)N[C@@H](CCCCN)C(=O)N[C@@H](CC(C)C)C(=O)N[C@@H](Cc1ccccc1)C(=O)N[C@@H](CCCCN)C(=O)N[C@@H](Cc1ccccc1)C(=O)N[C@@H](Cc1ccccc1)C(=O)N[C@@H](CCCCN)C(=O)N[C@@H](CC(=O)O)C(=O)N[C@@H](CC(C)C)C(=O)N[C@@H](CC(C)C)C(=O)NCC(=O)N[C@@H](C)C(=O)N[C@@H](Cc1ccccc1)C(=O)N[C@@H](CC(C)C)C(=O)NCC(=O)N[C@@H](CC(N)=O)C(=O)N[C@@H](CC(N)=O)C(=O)O)C(C)C` [α3-K17A], the “nitrocefin substrate degradation after two hours” value in series [1] is “minimal degradation”.
Still for that read-out and setting: to `CSCC[C@H](NC(C)=O)C(=O)N[C@@H](CCC(=O)O)C(=O)N[C@@H](Cc1ccccc1)C(=O)N[C@H](C(=O)N[C@@H](C)C(=O)N[C@@H](CCCCN)C(=O)N[C@@H](CC(C)C)C(=O)N[C@@H](Cc1ccccc1)C(=O)N[C@@H](CCCCN)C(=O)N[C@@H](Cc1ccccc1)C(=O)N[C@@H](Cc1ccccc1)C(=O)N[C@@H](CCCCN)C(=O)N[C@@H](CC(=O)O)C(=O)N[C@@H](CC(C)C)C(=O)N[C@@H](CC(C)C)C(=O)NCC(=O)N[C@@H](CCCCN)C(=O)N[C@@H](Cc1ccccc1)C(=O)N[C@@H](CC(C)C)C(=O)NCC(=O)N[C@@H](CC(N)=O)C(=O)N[C@@H](CC(N)=O)C(=O)O)C(C)C` [α3-N.Ac.] belongs “minimal degradation”.
The same measure, in the same setting: then MEFVAALFKFFKDLLGKFLGNN [α3-K6A], with “minimal degradation”.
On to MEFVAKLFAFFKDLLGKFLGNN [α3-K9A], for which the “nitrocefin substrate degradation after two hours” value in series [1] is “minimal degradation”.
Same read-out and setting: to MEFVAKLFKFFADLLGKFLGNN [α3-K12A] belongs 70%.
On to MEFVAKLFKPFKDLLGKFLGNN [α3-F10P], for which, in series [1] (initial nitrocefin 107 µM, Hepes 50 mM pH 7.4, 20 °C, first 15 min (Fig. 3f)), the “initial rate of nitrocefin degradation reaction (V0)” value is “lower than 15 µM/h”.
